From patent US20240094211A1, “COMPOSITIONS AND METHODS TARGETING S100A10 FOR THE TREATMENT AND DIAGNOSIS OF LIVER CANCER” (The University of Hong Kong, priority 2022, published 2024)

Legend:
[1] = system: PLC-S100A10 xenograft tumors; assay: Chemoresistance / treatment in subcutaneous xenograft model; type: in vivo; conditions: nude mice
Procedure: All animal experiments were conducted and approved by the University of Hong Kong Committee on the Use of Live Animals in Teaching and Research (CULATR). The frequency of CSCs with tumor initiation capabilities was evaluated using limiting dilution assay. The BALB/c nude mouse xenograft model was used to evaluate tumorigenicity and chemoresistant ability in vivo. Nude mice were intrasplenically injected with HCC cells to assess the liver metastatic capacity in vivo. After surgery, mice recovered from anesthesia in a cage under a heater. Analgesia was provided to the nude mice during the first postoperative week. Tail vein injection of luciferase-labelled MHCC-97L cells in NOD SCID mice was used to assess lung metastatic ability. After mice were killed, the tumor tissues, livers, spleens, and lungs were excised and fixed in 4% paraformaldehyde overnight. Thereafter, fixed tissues were embedded in paraffin for further studies.
For chemoresistance in xenograft model, subcutaneous xenografts in nude mice were established with PLC/PRF/5 or MHCC97L cells. Treatment was started once the size of the xenograft reached ˜5 mm in diameter. The mice were randomly assigned into different groups, each consisting of at least 5 mice. Sorafenib at 10 mg/kg was administered daily through oral gavage. Mouse IgG antibody or anti-S100A10 antibody was administered at 10 μg once every 3 days by intraperitoneal injection.

[2] = system: S100A10; assay: S100A10 expression under chemotherapeutic treatment (qRT-PCR, western blot); type: cell-based, human; conditions: HCC cells treated with chemotherapeutic agents
Procedure: Total RNA was extracted using the TRIZOL Reagent (Life Technologies). cDNA was synthesized by reverse transcription (Roche). SYRB Green PCR Master Mix (Applied Biosystems) and Applied Biosystems Quant Studio 5 Real-time PCR System were used for qRT-PCR analysis. All qRT-PCR reactions were tested in triplicates.
(§1) Quantified protein lysates were resolved on SDS-PAGE, transferred onto a polyvinylidenedifluoride (PVDF) membrane (Bio-Rad), and then blocked with 5% non-fat milk in Tris-buffered saline-Tween 20 (TBST) for 1 h at room temperature. The blocked membrane was then incubated with primary antibody diluted in 5% bovine serum albumin in TBST at 4° C. overnight.

[3] = system: HCC cells (PLC, 97L); assay: Apoptotic assay (annexin-V staining, flow cytometry); type: cell-based, human; conditions: PLC and 97L, 48 h
Procedure: The apoptotic assay was determined by flow cytometry using annexin-V staining.

[4] = system: HCC cells (PLC, 97L); assay: Chemotherapy-induced cytotoxicity / chemoresistance (XTT assay); type: cell-based, human; conditions: for cell viability of S100A10-OE cells versus controls on treatment: PLC and 97L
[5] = system: HIF-1α; assay: HIF-1α expression under chemotherapeutic treatment (western blot); type: cell-based, human; conditions: HCC cells treated with chemotherapeutic agents
Procedure: as §1

[6] = system: PLC cells; assay: Focus formation assay; type: cell-based, human
Procedure: Focus formation assay was used to assess anchorage-dependent growth. In brief, 1,000 cells were seeded in each well of six-well plate for approximately 2-3 weeks. Surviving colonies were stained and counted using crystal violet (Sigma-Aldrich).
(§2) HCC cells were seeded in 6-well plate and subjected to 2 μg EVs treatment for 48 hours one day after seeding. Then the cells were used for functional studies or western blotting. For treating with neutralizing antibodies, EVs were incubated with PBS (1:10 volume/volume), IgG antibody (1:10 volume/volume) (Santa Cruz, sc-2025), or anti-S100A10 neutralizing antibody (1:10 volume/volume) (Santa Cruz, sc-81153) before they were applied in in vitro or in vivo assays. For S100A10 NA or ITGAV treatment before EVs isolation, 20 ug S100A10 NA or IgG were pre-incubate with 1,000 million cells and then seed in medium with 10% EVs free FBS. Then the EVs were collected after 48 hours.

[7] = system: PLC-Vec/S100A10 cells; assay: XTT assay for cell proliferation with gefitinib; type: cell-based, human
[8] = system: PLC cells; assay: Sphere formation assay; type: cell-based, human
Procedure: A total of 1,000 cells were cultured in 0.25% methyl cellulose (Sigma-Aldrich) supplemented DMEM/F12 medium (Life Technologies) with 20 ng/mL EGF (Life Technologies), 10 ng/mL basic FGF (Life Technologies), B27 (1:50, GIBCO), and 4 μg/mL insulin (BIOIND, Kibbutz Beit Haemek, Israel) in 24-well plates, which were coated with poly HEMA (Sigma-Aldrich). The cells were replenished with 30 μL supplementary medium every other day.
as §2

[9] = system: HCC cells (PLC, 97L); assay: Transwell migration and matrigel invasion assays (pretreated HCC cells); type: cell-based, human
Procedure: Transwell migration and invasion assays were performed to evaluate cell motility (Corning, #353097 for migration, #354480 for invasion). Approximately 1×10^5 cells were seeded in the medium without FBS on transwell upper chambers, and the lower chamber was supplied with medium with 10% FBS, with the indicated conditional medium, or EVs. The cells that migrated and invaded to the lower membrane surface were stained using crystal violet and then counted under microscopy.
as §2

[10] = system: MMP2, fibronectin and EGF on EVs; assay: Western blotting of MMP2, fibronectin, EGF and S100A10 in EVs and cells; type: cell-based, human; conditions: PLC-S100A10 cells treated 48 hours, compared with control GRADSP peptides (RAD)
Procedure: For EVs isolation from cell culture supernatants, HCC cells were cultured in medium with 10% EV-depleted FBS, which was prepared by 100,000× g centrifugation overnight (≥12 h) at 4° C. (Himac, CP100NX Ultracentrifuges). EVs were purified by differential centrifugation after the cell culture supernatant were collected. Briefly, cell culture supernatants were centrifuged at 2000×g for 15 min to remove cell debris and dead cells. Then the supernatant was centrifugated at 20000×g for 30 min at 4° C. to remove microvesicles. Then the supernatant was first passed through 0.22 μm filter followed by ultracentrifugation at 100,000×g for 2 h at 4° C. to collect EVs. The EVs were then washed with PBS and collected by ultracentrifugation at 100,000×g for another 2 h at 4° C. HCC patients' or healthy donors' plasma derived EVs were purified by differential centrifugation. The plasma was first centrifuged at 4000 g for 15 min to obtain cell-free plasma. Then, 500 μL of the obtained plasma was toped-up to 1 mL and then centrifuged at 20,000 g for 1 hour (Himac, CP100NX Ultracentrifuges). The collected supernatants were then centrifuged at 100,000 g for 2 h at 4° C. […]
Quantified protein lysates were resolved on SDS-PAGE, transferred onto a polyvinylidenedifluoride (PVDF) membrane (Bio-Rad), and then blocked with 5% non-fat milk in Tris-buffered saline-Tween 20 (TBST) for 1 h at room temperature. […]

Molecule	xenograft tumor growth in PLC-S100A10 group versus control group when treated [1]	expression of S100A10 [2]	apoptotic indices of S100A10-OE cells versus controls on treatment [3]	cell viability of S100A10-OE cells versus controls on treatment [4]	expression of HIF-1α [5]	further results
O=c1[nH]cc(F)c(=O)[nH]1 [5-FU, 5-flurouracil]	significantly larger	upregulated	lower	significantly higher	–	–
N.N.[Cl][Pt][Cl] [cisplatin]	significantly larger	upregulated	lower	significantly higher	upregulated	–
COc1cc2ncnc(Nc3ccc(F)c(Cl)c3)c2cc1OCCCN1CCOCC1 [gefitinib]	–	–	–	–	–	focus formation of S100A10-OE cells [6]: significantly suppressed; sensitivity of S100A10-OE cells versus Vec cells (cell proliferation) [7]: more sensitive; chemoresistance of S100A10-OE cells ([4]; PLC S100A10-OE cells, sorafenib): significantly suppressed; sphere formation of S100A10-OE cells [8]: significantly suppressed; invasion ability of S100A10-OE cells [9]: significantly suppressed; migration ability of S100A10-OE cells [9]: significantly suppressed
CNC(=O)c1cc(Oc2ccc(NC(=O)Nc3ccc(Cl)c(C(F)(F)F)c3)cc2)ccn1 [sorafenib]	significantly larger	upregulated	lower	significantly higher	upregulated	–
GRGDSP [RGD peptide]	–	–	–	–	–	S100A10 on EVs [10]: no changes; levels of MMP2, fibronectin and EGF on EVs [10]: greatly reduced
